Several values for one entry are separate records, joined by “and”; a condition that tells them apart may be missing. Equal entries are not always repeated. Toxic doses and inconclusive results are not listed. Rule for the calls: active = survival T/C of 150% or more; inactive = T/C below 125% in these data.
Test system: P388 leukemia ip, CD2F1 mice, survival T/C
Assay: NCI In Vivo Anticancer Drug Screen. Data for tumor model P388 Leukemia (intraperitoneal) in CD2F1 (CDF1) mice
Conditions: endpoint: median survival time, higher = longer survival
In short: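 Mice carrying the transplanted tumor received test compound or vehicle. Survival was recorded in each group, and the value is the treated-group measurement divided by that of the vehicle-treated control group.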

[1] = dose: 50.0 mg/kg/injection, schedule: Q01DX009 (ip), vehicle: suspension in saline
[2] = dose: 100.0 mg/kg/injection, schedule: Q01DX009 (ip), vehicle: suspension in saline
[3] = dose: 200.0 mg/kg/injection, schedule: Q01DX009 (ip), vehicle: suspension in saline
[4] = dose: 100.0 mg/kg/injection, schedule: Q01DX009 (ip), vehicle: saline
[5] = dose: 200.0 mg/kg/injection, schedule: Q01DX009 (ip), vehicle: saline
[6] = dose: 25.0 mg/kg/injection, schedule: Q01DX005 (ip), vehicle: saline with Tween-80
[7] = dose: 50.0 mg/kg/injection, schedule: Q01DX005 (ip), vehicle: saline with Tween-80
[8] = dose: 100.0 mg/kg/injection, schedule: Q04DX002 (ip), vehicle: saline with Tween-80
[9] = dose: 200.0 mg/kg/injection, schedule: Q04DX002 (ip), vehicle: saline with Tween-80
[10] = dose: 100.0 mg/kg/injection, schedule: Q01DX005 (ip), vehicle: saline with Tween-80
[11] = dose: 25.0 mg/kg/injection, schedule: Q01DX009 (ip), vehicle: saline with Tween-80
[12] = dose: 50.0 mg/kg/injection, schedule: Q01DX009 (ip), vehicle: saline with Tween-80
[13] = dose: 100.0 mg/kg/injection, schedule: Q01DX009 (ip), vehicle: saline with Tween-80
[14] = dose: 200.0 mg/kg/injection, schedule: Q01DX009 (ip), vehicle: saline with Tween-80
[15] = dose: 12.5 mg/kg/injection, schedule: Q04DX002 (ip), vehicle: saline with Tween-80
[16] = dose: 25.0 mg/kg/injection, schedule: Q04DX002 (ip), vehicle: saline with Tween-80
[17] = dose: 50.0 mg/kg/injection, schedule: Q04DX002 (ip), vehicle: saline with Tween-80
[18] = dose: 12.5 mg/kg/injection, schedule: Q01DX009 (ip), vehicle: saline with Tween-80
[19] = dose: 50.0 mg/kg/injection, schedule: Q01DX005 (ip), vehicle: Klucel (hydroxypropylcellulose) (HPC)
[20] = dose: 100.0 mg/kg/injection, schedule: Q01DX005 (ip), vehicle: Klucel (hydroxypropylcellulose) (HPC)
[21] = dose: 200.0 mg/kg/injection, schedule: Q01DX005 (ip), vehicle: Klucel (hydroxypropylcellulose) (HPC)
[22] = dose: 200.0 mg/kg/injection, schedule: Q01DX005 (ip), vehicle: saline with Tween-80

Measured: T/C

CN(C)CCCNc1c2ccccc2nc2cccc([N+](=O)[O-])c12
inactive: dose: 0.03 mg/kg/injection, schedule: Q01DX009 (ip), vehicle: water 102 % of control and 108 % of control | dose: 0.06 mg/kg/injection, schedule: Q01DX009 (ip), vehicle: water 107 % of control and 115 % of control (2×) | dose: 0.13 mg/kg/injection, schedule: Q01DX009 (ip), vehicle: water 115 % of control and 120 % of control and 123 % of control | dose: 0.25 mg/kg/injection, schedule: Q01DX009 (ip), vehicle: water 107 % of control and 96 % of control | dose: 8.0 micrograms/kg/injection, schedule: Q01DX009 (ip), vehicle: saline 100 % of control | dose: 16.0 micrograms/kg/injection, schedule: Q01DX009 (ip), vehicle: saline 119 % of control | dose: 32.0 micrograms/kg/injection, schedule: Q01DX009 (ip), vehicle: saline 100 % of control | dose: 63.0 micrograms/kg/injection, schedule: Q01DX009 (ip), vehicle: saline 123 % of control | dose: 125.0 micrograms/kg/injection, schedule: Q01DX009 (ip), vehicle: saline 117 % of control | dose: 250.0 micrograms/kg/injection, schedule: Q01DX009 (ip), vehicle: saline 116 % of control

COc1cc(C2NC(C(=O)O)CS2)cc(OC)c1OC (centres undefined)
inactive: [1] 94 % of control | [2] 97 % of control | [3] 96 % of control

CCCCCC(Cl)(CC)CCCCC
inactive: [4] 110 % of control | [5] 108 % of control | dose: 400.0 mg/kg/injection, schedule: Q01DX009 (ip), vehicle: saline 109 % of control

Nc1cc2nc3ccccc3nc2cc1N
inactive: [6] 91 % of control | [7] 90 % of control

CC(C)=CCC(OC(=O)C=C(C)C)c1cc(O)c2c(O)ccc(O)c2c1O.[Cu] (centres undefined)
inactive: [8] 101 % of control | [9] 104 % of control

O=C(NNC1=NCCN1Cc1ccccc1)c1cccc(Cl)c1
inactive: dose: 50.0 mg/kg/injection, schedule: Q01DX009 (ip), vehicle: Klucel (hydroxypropylcellulose) (HPC) 100 % of control | dose: 100.0 mg/kg/injection, schedule: Q01DX009 (ip), vehicle: Klucel (hydroxypropylcellulose) (HPC) 100 % of control | dose: 200.0 mg/kg/injection, schedule: Q01DX009 (ip), vehicle: Klucel (hydroxypropylcellulose) (HPC) 100 % of control

O=C(C[n+]1ccsc1Br)c1ccccc1
inactive: [7] 102 % of control | [10] 119 % of control

CN1CCCC(O)(C(=O)c2ccccc2)C1 (centres undefined)
inactive: dose: 50.0 mg/kg/injection, schedule: Q01DX009 (ip), vehicle: saline 108 % of control | [4] 90 % of control | dose: 100.0 mg/kg/injection, schedule: Q04DX003 (ip), vehicle: Klucel (hydroxypropylcellulose) (HPC) 102 % of control | [5] 90 % of control | dose: 200.0 mg/kg/injection, schedule: Q04DX003 (ip), vehicle: Klucel (hydroxypropylcellulose) (HPC) 104 % of control

IC1=CC2CCC(C1)C2 (centres undefined)
inactive: [11] 100 % of control and 103 % of control | [12] 104 % of control and 116 % of control and 93 % of control | [13] 101 % of control and 109 % of control | [14] 102 % of control and 122 % of control and 96 % of control

CCCCc1c(OC)cc(O)c2c1C(=O)c1[nH]c(C(=O)O)c(O)c(=O)c1C2=O
inactive: dose: 7.5 mg/kg/injection, schedule: Q01DX009 (ip), vehicle: Klucel (hydroxypropylcellulose) (HPC) 98 % of control | dose: 15.0 mg/kg/injection, schedule: Q01DX009 (ip), vehicle: Klucel (hydroxypropylcellulose) (HPC) 100 % of control | dose: 30.0 mg/kg/injection, schedule: Q01DX009 (ip), vehicle: Klucel (hydroxypropylcellulose) (HPC) 95 % of control

Brc1ccc(N=C2N=C(Nc3ccc(Br)cn3)c3ccccc32)nc1
inactive: [15] 100 % of control | [16] 94 % of control | [17] 90 % of control | [9] 91 % of control | dose: 400.0 mg/kg/injection, schedule: Q04DX002 (ip), vehicle: saline with Tween-80 106 % of control

[Se]=P(c1ccccc1)(c1ccccc1)N1CC1
inactive: dose: 12.5 mg/kg/injection, schedule: Q01DX001 (ip), vehicle: Klucel (hydroxypropylcellulose) (HPC) 99 % of control | dose: 25.0 mg/kg/injection, schedule: Q01DX001 (ip), vehicle: Klucel (hydroxypropylcellulose) (HPC) 104 % of control | dose: 50.0 mg/kg/injection, schedule: Q01DX001 (ip), vehicle: Klucel (hydroxypropylcellulose) (HPC) 101 % of control

N#Cc1c(N2CCOCC2)cc(-c2ccccc2)oc1=O
inactive: [16] 101 % of control | [17] 97 % of control | [8] 100 % of control

CCCCCCCCCCCCCCCCN(C)CCO
inactive: [18] 104 % of control | [11] 106 % of control | [12] 99 % of control

CC1CN=C(c2ccc(NC(=O)NCCCCCCCCCCCCNC(=O)Nc3ccc(C4=NCC(C)N4)cc3)cc2)N1 (centres undefined)
inactive: dose: 6.25 mg/kg/injection, schedule: Q01DX005 (ip), vehicle: saline with Tween-80 103 % of control | dose: 12.5 mg/kg/injection, schedule: Q01DX005 (ip), vehicle: saline with Tween-80 103 % of control | [6] 108 % of control | [7] 106 % of control | [10] 116 % of control

[Cu+2].[O-]c1ccc(Br)c2cccnc12.[O-]c1ccc(Br)c2cccnc12
inactive: [18] 104 % of control | [11] 100 % of control | dose: 33.0 mg/kg/injection, schedule: Q04DX003 (ip), vehicle: saline with Tween-80 90 % of control | [12] 104 % of control

CCCN1COC(OCCN(CC)CC)C(C)(C)C1 (centres undefined)
inactive: [12] 108 % of control | [13] 113 % of control | [14] 107 % of control

O=C1SC/C(=N\N=C2/CSC(=O)N2Cc2ccccc2)N1Cc1ccccc1
inactive: [19] 87 % of control | [20] 93 % of control | [21] 88 % of control

ON1c2ccccc2-c2ccccc2C1(c1ccccc1)c1ccccc1
inactive: [7] 94 % of control | [10] 99 % of control | [22] 90 % of control

S=c1[nH]nc(Cc2cccc3ccccc23)n1-c1ccccc1
inactive: [19] 97 % of control | [20] 99 % of control | [21] 90 % of control

CC(C)(C)OC(=O)NC(N)=NCCCC(NC(=O)OC(C)(C)C)C(=O)O (centres undefined)
inactive: [7] 100 % of control | [10] 103 % of control | [22] 102 % of control

O=C(O)C[N-]CC[N-]CC(=O)O.[Cl][Pt+2][Cl]
inactive: dose: 6.25 mg/kg/injection, schedule: Q04DX002 (ip), vehicle: saline with Tween-80 108 % of control | [15] 103 % of control | [16] 113 % of control | [17] 109 % of control | [8] 120 % of control | [9] 102 % of control

FC(F)(F)c1ccccc1NC(=S)SCc1ccccc1
inactive: [1] 91 % of control | [2] 90 % of control | [3] 90 % of control

Source: PubChem BioAssay AID330 (DTP/NCI, 2004)
